This note sets out measurements from ChEMBL document CHEMBL5291721, “A preclinical secondary pharmacology resource illuminates target-adverse drug reaction associations of marketed drugs” (Nat Commun, 2023).

For assay [1], the target named is T1, 5-hydroxytryptamine receptor 3A (Homo sapiens, UniProt P46098).
T1 sequence (P46098 whole entry): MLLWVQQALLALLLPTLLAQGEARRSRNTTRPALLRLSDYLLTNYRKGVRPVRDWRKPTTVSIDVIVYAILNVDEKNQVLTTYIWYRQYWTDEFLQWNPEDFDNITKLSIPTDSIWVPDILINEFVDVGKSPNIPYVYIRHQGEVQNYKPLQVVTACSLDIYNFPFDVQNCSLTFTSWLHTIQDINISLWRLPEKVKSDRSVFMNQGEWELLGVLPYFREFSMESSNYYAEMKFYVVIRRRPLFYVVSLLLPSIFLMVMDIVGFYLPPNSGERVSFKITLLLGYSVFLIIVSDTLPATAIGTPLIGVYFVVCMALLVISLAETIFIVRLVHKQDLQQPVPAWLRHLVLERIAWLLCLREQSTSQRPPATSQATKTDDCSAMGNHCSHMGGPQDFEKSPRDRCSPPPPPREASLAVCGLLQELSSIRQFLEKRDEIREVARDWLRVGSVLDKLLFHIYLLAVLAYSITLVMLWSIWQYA
In kind it is functional.

The next assay concerns the target Vasopressin V1a receptor (Homo sapiens, UniProt P37288).
Another assay has as its target Melanocortin receptor 3 (Homo sapiens, UniProt P41968).
The target in assay [2] is T2, Cholecystokinin receptor type A (Homo sapiens, UniProt P32238).
T2 sequence (P32238 whole entry): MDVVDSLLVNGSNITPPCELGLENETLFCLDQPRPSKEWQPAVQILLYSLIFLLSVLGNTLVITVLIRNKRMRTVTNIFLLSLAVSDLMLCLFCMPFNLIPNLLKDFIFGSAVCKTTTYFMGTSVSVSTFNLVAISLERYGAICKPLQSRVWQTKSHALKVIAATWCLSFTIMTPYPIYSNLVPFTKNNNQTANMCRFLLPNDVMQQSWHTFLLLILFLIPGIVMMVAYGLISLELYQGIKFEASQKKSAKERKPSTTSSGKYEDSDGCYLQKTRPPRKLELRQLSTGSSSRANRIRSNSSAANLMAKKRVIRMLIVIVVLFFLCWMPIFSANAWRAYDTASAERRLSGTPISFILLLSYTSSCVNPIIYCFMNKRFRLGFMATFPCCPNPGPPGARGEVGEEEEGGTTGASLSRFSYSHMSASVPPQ

For another assay, the target named is T3, Glucocorticoid receptor (Homo sapiens, UniProt P04150).
T3 sequence (P04150 whole entry): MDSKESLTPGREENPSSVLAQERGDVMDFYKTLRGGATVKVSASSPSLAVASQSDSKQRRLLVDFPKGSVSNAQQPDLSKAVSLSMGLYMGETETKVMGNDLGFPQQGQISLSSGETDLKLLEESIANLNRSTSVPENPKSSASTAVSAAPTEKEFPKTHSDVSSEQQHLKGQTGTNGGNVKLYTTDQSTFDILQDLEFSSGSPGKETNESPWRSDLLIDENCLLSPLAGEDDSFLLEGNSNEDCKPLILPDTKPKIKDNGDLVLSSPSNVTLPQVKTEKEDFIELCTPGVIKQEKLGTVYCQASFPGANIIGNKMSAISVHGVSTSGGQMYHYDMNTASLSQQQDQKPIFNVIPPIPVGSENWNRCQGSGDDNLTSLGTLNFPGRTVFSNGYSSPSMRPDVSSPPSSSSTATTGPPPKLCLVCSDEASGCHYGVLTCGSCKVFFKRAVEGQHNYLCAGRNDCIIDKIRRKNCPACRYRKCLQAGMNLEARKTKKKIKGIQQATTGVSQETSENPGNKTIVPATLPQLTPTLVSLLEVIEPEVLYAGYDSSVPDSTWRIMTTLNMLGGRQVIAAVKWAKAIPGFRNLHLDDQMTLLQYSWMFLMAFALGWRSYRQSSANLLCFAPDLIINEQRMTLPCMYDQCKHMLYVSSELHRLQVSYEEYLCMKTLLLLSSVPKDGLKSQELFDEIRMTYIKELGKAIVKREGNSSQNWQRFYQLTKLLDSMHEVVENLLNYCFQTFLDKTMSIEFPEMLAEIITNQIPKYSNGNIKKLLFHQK

Assay [3] addresses T4, Alpha-1A adrenergic receptor (Homo sapiens, UniProt P35348).
T4 sequence (P35348 whole entry): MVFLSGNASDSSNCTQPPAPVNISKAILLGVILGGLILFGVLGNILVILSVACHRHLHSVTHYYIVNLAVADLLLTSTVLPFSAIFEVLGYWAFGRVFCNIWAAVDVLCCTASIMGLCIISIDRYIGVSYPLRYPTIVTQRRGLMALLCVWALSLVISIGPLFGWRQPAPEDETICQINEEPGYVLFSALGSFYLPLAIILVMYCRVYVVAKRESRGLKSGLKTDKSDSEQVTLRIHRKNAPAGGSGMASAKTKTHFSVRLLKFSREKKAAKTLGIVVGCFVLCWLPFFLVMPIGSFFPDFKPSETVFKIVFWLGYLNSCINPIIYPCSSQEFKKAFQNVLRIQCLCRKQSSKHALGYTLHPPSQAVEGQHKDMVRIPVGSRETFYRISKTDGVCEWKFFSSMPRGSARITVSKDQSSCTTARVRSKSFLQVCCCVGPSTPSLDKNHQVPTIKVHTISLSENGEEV

Assay [4] has as its target Sodium-dependent dopamine transporter (Homo sapiens, UniProt Q01959).
Assay [5] concerns the target Sodium-dependent noradrenaline transporter (Homo sapiens, UniProt P23975).
In assay [6] the target is T5, Neuropeptide Y receptor type 1 (Homo sapiens, UniProt P25929).
T5 sequence (P25929 whole entry): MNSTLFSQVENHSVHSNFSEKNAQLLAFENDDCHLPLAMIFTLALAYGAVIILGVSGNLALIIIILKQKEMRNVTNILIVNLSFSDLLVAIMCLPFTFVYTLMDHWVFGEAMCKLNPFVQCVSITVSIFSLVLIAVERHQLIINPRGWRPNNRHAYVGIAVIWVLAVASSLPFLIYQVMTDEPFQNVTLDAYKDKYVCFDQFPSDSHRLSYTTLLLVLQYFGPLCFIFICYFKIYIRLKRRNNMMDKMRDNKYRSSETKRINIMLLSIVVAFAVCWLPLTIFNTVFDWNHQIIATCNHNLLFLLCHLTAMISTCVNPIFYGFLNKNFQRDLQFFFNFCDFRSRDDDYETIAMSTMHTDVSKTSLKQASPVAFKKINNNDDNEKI

Assay [7] deals with T4, Alpha-1A adrenergic receptor. The class given is functional, cell-based.

Some results are limits rather than exact numbers.
Also: assay procedure not described here.

Chain of Vasopressin V1a receptor (P37288 whole entry): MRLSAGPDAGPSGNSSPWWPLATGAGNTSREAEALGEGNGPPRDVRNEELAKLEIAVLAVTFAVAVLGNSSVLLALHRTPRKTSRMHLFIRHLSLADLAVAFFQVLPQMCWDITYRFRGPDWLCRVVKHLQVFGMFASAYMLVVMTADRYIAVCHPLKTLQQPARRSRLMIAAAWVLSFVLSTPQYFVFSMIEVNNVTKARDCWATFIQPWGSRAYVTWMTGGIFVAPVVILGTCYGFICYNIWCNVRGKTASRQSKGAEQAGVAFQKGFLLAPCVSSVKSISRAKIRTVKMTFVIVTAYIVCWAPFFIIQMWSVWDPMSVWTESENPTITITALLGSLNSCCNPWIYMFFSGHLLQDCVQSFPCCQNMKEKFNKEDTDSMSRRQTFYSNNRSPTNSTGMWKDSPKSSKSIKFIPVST
Chain of Melanocortin receptor 3 (P41968 whole entry): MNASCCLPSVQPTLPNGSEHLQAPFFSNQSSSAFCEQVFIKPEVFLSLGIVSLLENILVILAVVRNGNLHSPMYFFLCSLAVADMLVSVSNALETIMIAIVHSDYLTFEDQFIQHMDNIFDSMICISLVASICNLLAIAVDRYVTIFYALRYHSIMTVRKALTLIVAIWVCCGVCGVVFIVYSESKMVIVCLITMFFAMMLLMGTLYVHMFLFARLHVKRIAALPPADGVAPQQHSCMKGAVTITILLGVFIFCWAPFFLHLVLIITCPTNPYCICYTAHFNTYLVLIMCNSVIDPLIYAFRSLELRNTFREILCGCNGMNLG
Chain of Sodium-dependent noradrenaline transporter (P23975 whole entry): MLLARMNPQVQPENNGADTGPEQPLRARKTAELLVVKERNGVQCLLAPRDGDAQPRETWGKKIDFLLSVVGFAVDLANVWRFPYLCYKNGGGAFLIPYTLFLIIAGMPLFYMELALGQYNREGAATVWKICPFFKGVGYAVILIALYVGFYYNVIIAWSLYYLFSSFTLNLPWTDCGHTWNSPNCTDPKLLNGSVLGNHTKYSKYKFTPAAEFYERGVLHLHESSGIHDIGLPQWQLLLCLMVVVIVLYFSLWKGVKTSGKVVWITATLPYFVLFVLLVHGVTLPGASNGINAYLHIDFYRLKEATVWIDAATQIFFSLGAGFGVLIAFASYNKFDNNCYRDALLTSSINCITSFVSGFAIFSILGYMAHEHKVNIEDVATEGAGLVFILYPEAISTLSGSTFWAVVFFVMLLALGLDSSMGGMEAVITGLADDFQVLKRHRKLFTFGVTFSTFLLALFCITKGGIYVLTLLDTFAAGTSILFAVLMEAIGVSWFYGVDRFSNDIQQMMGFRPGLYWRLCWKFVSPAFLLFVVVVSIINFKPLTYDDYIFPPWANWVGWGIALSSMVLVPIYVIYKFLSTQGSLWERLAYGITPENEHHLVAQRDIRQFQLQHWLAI
Chain of Sodium-dependent dopamine transporter (Q01959 whole entry): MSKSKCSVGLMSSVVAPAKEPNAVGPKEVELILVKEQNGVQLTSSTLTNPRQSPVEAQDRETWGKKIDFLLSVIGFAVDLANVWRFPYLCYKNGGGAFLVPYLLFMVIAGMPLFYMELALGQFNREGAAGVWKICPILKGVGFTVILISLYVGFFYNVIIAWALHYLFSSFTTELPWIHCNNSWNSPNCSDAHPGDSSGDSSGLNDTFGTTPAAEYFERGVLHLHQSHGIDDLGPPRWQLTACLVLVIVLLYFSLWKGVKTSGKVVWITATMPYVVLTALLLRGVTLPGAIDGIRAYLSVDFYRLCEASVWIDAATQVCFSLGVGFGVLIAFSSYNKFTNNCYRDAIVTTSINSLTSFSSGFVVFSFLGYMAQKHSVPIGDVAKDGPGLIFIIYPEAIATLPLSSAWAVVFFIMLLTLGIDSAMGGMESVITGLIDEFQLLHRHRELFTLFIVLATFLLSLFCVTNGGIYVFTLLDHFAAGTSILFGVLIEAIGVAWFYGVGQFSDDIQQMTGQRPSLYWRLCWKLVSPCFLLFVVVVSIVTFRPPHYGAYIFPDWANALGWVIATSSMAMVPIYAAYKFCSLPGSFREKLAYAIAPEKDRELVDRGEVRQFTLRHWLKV

A word on the AC50: it is the midpoint of the concentration-response curve, whichever way the signal moves. A lower AC50 goes with activity at low concentration. On to `CCCN1CC(NS(=O)(=O)N(CC)CC)CC2Cc3c(O)cccc3CC21` (configuration not stated) [QUINAGOLIDE], for which the AC50 in assay [1] is greater than 30 µM; on Vasopressin V1a receptor it was greater than 30 µM; on Melanocortin receptor 3, greater than 30 µM; in assay [2], greater than 30 µM; on Glucocorticoid receptor it was greater than 30 µM; in [3], 29 µM. Moreover, the AC50 was greater than 30 µM in assay [4], 21 µM in [5] and greater than 30 µM in assay [6].

For `O=C1c2ccccc2C(=O)C1c1ccccc1` [PHENINDIONE], the AC50 is greater than 30 µM in [1]; greater than 10 µM on Vasopressin V1a receptor; greater than 10 µM on Melanocortin receptor 3; greater than 10 µM in assay [2]; greater than 10 µM on Glucocorticoid receptor; greater than 10 µM in assay [3]. Further, the AC50 in [4], in [5] and in [6] was greater than 10 µM each time.

As for `C=C1c2cccc(O)c2C(=O)C2=C(O)[C@]3(O)C(=O)C(C(N)=O)=C(O)[C@@H](N(C)C)[C@@H]3[C@@H](O)[C@H]12` [METHACYCLINE], the concentration at half-maximal activity (AC50) is greater than 30 µM in [1]; greater than 30 µM on Vasopressin V1a receptor; greater than 30 µM at Melanocortin receptor 3; greater than 30 µM in assay [2]; greater than 30 µM at Glucocorticoid receptor; greater than 10 µM in assay [3]. In addition, the AC50 was greater than 10 µM in assay [4], greater than 10 µM in assay [5] and greater than 30 µM in assay [6].

In the case of `CC(=O)O[C@]1(C(C)=O)CC[C@H]2[C@@H]3C=C(Cl)C4=CC(=O)[C@@H]5C[C@@H]5[C@]4(C)[C@H]3CC[C@@]21C` [CYPROTERONE ACETATE], the AC50 is greater than 30 µM in [1]; greater than 10 µM at Vasopressin V1a receptor; greater than 30 µM on Melanocortin receptor 3; greater than 30 µM in [2]; greater than 10 µM in assay [3]; greater than 30 µM in assay [4]. Moreover, the AC50 in [7] was greater than 3 µM; in [5] it was greater than 30 µM; in assay [6], greater than 30 µM.

For the compound `C[C@@H]1C[C@H]2[C@@H]3C[C@H](F)C4=CC(=O)C=C[C@]4(C)[C@@]3(F)[C@@H](O)C[C@]2(C)[C@@]1(OC(=O)c1ccco1)C(=O)SCF` [FLUTICASONE FUROATE], the AC50 was greater than 30 µM in assay [1]; greater than 10 µM at Vasopressin V1a receptor; greater than 10 µM at Melanocortin receptor 3; greater than 10 µM in assay [2]; greater than 10 µM in assay [3]; greater than 10 µM in assay [4]. The AC50 in [7] is greater than 30 µM; in [5] it was greater than 10 µM; in [6], greater than 10 µM.

With `CN[C@@H](C)[C@@H](O)c1ccccc1` [PSEUDOEPHEDRINE], the AC50 is greater than 30 µM in assay [1]; greater than 10 µM at Vasopressin V1a receptor; greater than 30 µM at Melanocortin receptor 3; greater than 30 µM in assay [2]; greater than 30 µM at Glucocorticoid receptor; greater than 10 µM in assay [3]. The AC50 in [4] was greater than 10 µM; in assay [5], greater than 10 µM; in assay [6], greater than 30 µM.

For the compound `O=C(O)COCCN1CCN(C(c2ccccc2)c2ccc(Cl)cc2)CC1` (configuration not stated) [CETIRIZINE], the AC50 is greater than 30 µM in assay [1]; greater than 10 µM on Vasopressin V1a receptor; greater than 30 µM at Melanocortin receptor 3; greater than 30 µM in assay [2]; greater than 10 µM in assay [3]; greater than 30 µM in assay [7]. In [6], this compound displayed a half-maximal activity concentration (AC50) greater than 30 µM.

For the compound `CCC[C@@H]1C[C@@H](C(=O)N[C@@H]([C@H]2O[C@H](SC)[C@H](O)[C@@H](O)[C@H]2O)[C@@H](C)O)N(C)C1` [LINCOMYCIN], the AC50 is greater than 30 µM in [1]; greater than 10 µM on Vasopressin V1a receptor; greater than 10 µM at Melanocortin receptor 3; greater than 10 µM in assay [2]; greater than 10 µM on Glucocorticoid receptor; greater than 10 µM in assay [3]. Further, the AC50 in assay [4], in assay [5] and in assay [6] was greater than 10 µM each time.

On to `C/C=C(/C(=C/C)c1ccc(O)cc1)c1ccc(O)cc1` [DIENESTROL], for which the AC50 was greater than 30 µM in [1]; greater than 10 µM on Vasopressin V1a receptor; greater than 10 µM on Melanocortin receptor 3; greater than 10 µM in assay [2]; 0.736 µM at Glucocorticoid receptor; greater than 10 µM in assay [3]. The figures for the concentration at half-maximal activity (AC50) in assay [4], in assay [5] and in assay [6] were greater than 30 µM, greater than 30 µM and greater than 10 µM, respectively.

As for `CN(C)Cc1nnc2n1-c1ccc(Cl)cc1C(c1ccccc1)=NC2` [ADINAZOLAM], the AC50 in assay [1] is greater than 30 µM; at Vasopressin V1a receptor, greater than 10 µM; on Melanocortin receptor 3, greater than 10 µM; in assay [2] it was greater than 10 µM; on Glucocorticoid receptor, greater than 10 µM; in assay [3], greater than 10 µM. Moreover, the AC50 in assay [4], in [5] and in assay [6] was greater than 10 µM in each case.

For `CC(O)(CS(=O)(=O)c1ccc(F)cc1)C(=O)Nc1ccc(C#N)c(C(F)(F)F)c1` (configuration not stated) [BICALUTAMIDE], the AC50 in assay [1] was greater than 10 µM; at Vasopressin V1a receptor, greater than 30 µM; on Melanocortin receptor 3 it was greater than 30 µM; in [2], greater than 30 µM; on Glucocorticoid receptor, greater than 30 µM; in [3] it was greater than 10 µM. The AC50 in [4] is greater than 30 µM; in [7], greater than 3 µM; in assay [5] it was greater than 30 µM; in assay [6], greater than 30 µM.

As to `CNCCc1ccc(OC(=O)C(C)C)c(OC(=O)C(C)C)c1` [IBOPAMINE], the half-maximal activity concentration (AC50) (in assay [1]; at Vasopressin V1a receptor; on Melanocortin receptor 3; in [2]; at Glucocorticoid receptor; in assay [3]) was greater than 30 µM in each case. For the same compound, the AC50 in [4], in assay [5] and in [6] was greater than 30 µM throughout.
